Consider three sequences from patent publication US20250326799A1, “AGENTS INDUCING VASCULARISATION” (Coegin Pharma AB, priority 2022, published 2025).

“Also recorded” adds a separate entry of the source.

Test [1] concerns Human umbilical cord endothelial cells (HUVECs). In words: Gene expression by PCR in endothelial cells. Type of test: cell-based. To be noted: for expression of PECAM-1 (CD31): HUVECs. On the procedure: Human umbilical cord endothelial cells were first treated with a scramble non-coding siRNA (NC) or siRNA for NRP-1, subsequently treated with FOL26 in concentrations of 10 nM, 100 nM, and 1000 nM, and endothelial tube formation and the total master segemnts were measured using ImageJ. gene expression of PECAM-1 (CD31) analyzed.
Cells on 6-well plates were washed with cold DPBS (Gibco, USA) and homogenized in Trizol reagent (Invitrogen, CA, USA). Total RNA was extracted using PureLink RNA Mini Kit (Invitrogen, CA, USA), followed by nucleic acid quantification with NanoDrop 2000c (Thermo Fisher Scientific, USA). To determine mRNA expression of target genes, real-time qPCR was performed using by KAPA SYBR FAST One-Step qRT-PCR Master Mix Kit (KAPA Biosystems, USA) on LightCycler480 system (Roche, Mannheim, Germany). All primers were purchased from miScript Primer Assays (Qiagen, Valencia, CA) and GAPDH mRNA expression of each sample was used for normalization. Cells on 6-well plates were washed with cold DPBS and lysed with the mixture of lysis buffer and protease inhibitors on ice, then centrifuged at 15,000 g for 20 min at 4° C. Supernatant was performed to measure the protein concentration using BCA Protein Assay Kit (Thermo Fisher Scientific, USA). Protein sample was loaded onto SDS-PAGE gels and separated with electrophoresis, followed by transferred to PVDF membranes (Millipore, USA). Membranes were blocked with 5% nonfat milk. Primary antibodies (Abcam, UK) and secondary antibodies were performed to incubate with membranes at 4° C. overnight and at room temperature for 1 hour respectively. […]

Test [2] has the same test system. In words: sFasL-induced apoptosis, caspase 3 and 7 activation, HUVECs. Type of test: cell-based. Particulars: 10 nM, 100 nM, 1000 nM. On the procedure:
Human Umbilical Vein Endothelial Cells (HUVECs) and Human Coronary Artery Smooth Muscle Cells (HCASMCs) were purchased from Thermo Fisher. Cells were grown in Medium 200 containing 2% Low Serum Growth Supplement and Medium 231 with 5% Smooth Muscle Growth Supplement (Invitrogen, CA, USA) respectively with addition of Antibiotic-Antimycotic (1%, Invitrogen, CA, USA). Test polypeptide and sFasL (PeproTech, NJ, USA) were dissolved in the respective complete medium.
Caspase-Glo 3/7 Assay (Promega, USA) was performed to evaluate cell apoptosis. HUVECs and HCASMCs were seeded into 96-well plates at a density of 3-5×10^3 per well. For additional NRP-1 on cells transfected siRNA, NRP-1 was added 24 hours after transfection and the mixture of Caspase-Glo 3/7 was added 48 hours after polypeptide stimulations. Subsequent steps were performed as manufacturer's instructions using the FOL26 and FOL56 as test compounds. Data were read by Wallac 1420 Victor 2 (Perkin Elmer, USA).

A short description of test [3]: Vessel density, CD31+ positive area. To be noted: in vivo. Here is the method: Quantified measurement of total length (FIG. 20b), total master segments length (FIG. 20c), total branching length (FIG. 20d) and total segments length (FIG. 20e) were performed to evaluate angiogenesis in vitro (n=7 per group for FIG. 29 b-e). The quantification of vessel density was assessed with CD31+ positive area (FIG. 21a, n=13 per group). Western blot analysis of phosphorylated AKT (pAKT-T308), AKT, phosphorylated ERK1/2 (p-ERK1/2) and ERK1/2 in endothelial cells stimulated with FOL-26 peptides for 48 hours (FIG. 21b). Quantification of phosphorylation intensities normalized to respective total expressions (FIG. 21c-d, n=3 per group).

The subject of test [4] is human coronary smooth muscle cells (HCASMCs). The test can be described thus: H2O2 measurement after oxLDL, smooth muscle cells. The format is cell-based. To be noted: smooth muscle cells pre-incubated with peptide; 50 ug/ml oxLDL for 2 hours. On the procedure: (§1) The effect of FOL-026 peptide treatment on smooth muscle cell proliferation (FIG. 25a) and apoptosis (FIG. 25c) induced with low-oxygen condition was evaluated with the uptake of BrdU (n=10 per group) and active caspase-3/-7 (n=6-8 per group) separately. H2O2 measurement (FIG. 25b) of smooth muscle cells pre-incubated with FOL-26 peptides after 50 ug/ml oxidized Low-density Lipoprotein (oxLDL) stimulation for 2 hours (n=6-7 per group). Representative images of scratch wound assay in vitro are shown (FIG. 26a) and the ability of wound healing (FIG. 26b) in human coronary smooth muscle cells (HCASMCs) treated with FOL-026 peptides was measured by image J software (n=10 per group). Scale bar=150 um. Data are presented as means±SEM and acquired from 3 to 4 independent replicate tests. *P<0.05, **P<0.01, ***P<0.001, ****P<0.0001 by one-way ANOVA and Dunnett's post-hoc test.

For test [5] the test system is unchanged. In words: In vitro scratch wound closure, HCASMCs. The format is cell-based. To be noted: for wound closure (scratch wound assay): HCASMCs. Here is the method: as §1
qRT-PCR analysis of NRP-1 mRNA expression in HCASMCs with small interfering RNA transfection for 48 hours (n=4) (FIG. 27a). The assessment of BrdU incorporation (FIG. 27b, n=10-11) and caspase-3/-7 activation (FIG. 27c, n=3-10) in siRNA-NC/siNRP-1-transfected […] treated with indicated concentration of FOL-026 peptide. The wound closure rate (FIG. 28b) of HCASMCs in siRNA-NC and siNRP-1 group stimulated with increasing concentration of FOL-026 peptide was quantified by image J software (n=9-12 per group). Scale bar=150 um. Data are presented as means±SEM and acquired from 3 to 4 independent replicate tests. *P<0.05, **P<0.01, ***P<0.001, ****P<0.0001 by Student's t test for A, two-way ANOVA followed with Sidak's and Dunnett's multiple comparisons test.
The effect of FOL-005 peptide on smooth muscle cell proliferation (FIG. 30a) was determined with BrdU incorporation in peptide-treated human coronary smooth muscle cells (HCASMCs). Scratch wound assay (FIG. 30b) of HCASMCs incubated with FOL-005 peptides for 5 hours was measured by image J software (n=10-12 per group) and representative pictures of smooth muscle cell migration into an in vitro scratch injury were shown (FIG. 30c). Scale bar=150 um.

Consider VDTYDGGISVVYGLR [FOL-026], for which the “expression of PECAM-1 (CD31)” value was “increased expression of PECAM-1” in test [1] (10 nM, 100 nM, 1000 nM tested); “increased” in test [1] (100 nM and 1000 nM). For the same sequence, the angiogenesis related genes entry in test [1] (endothelial cells) is given as “induces upregulation”. The “sFasL-induced apoptosis (caspase 3 and 7)” value in test [2] (listed as FOL26) is on record as “reduced sFasL-induced apoptosis; also recorded: capable of reversing the sFasL-induced apoptosis”. In addition, in test [3], the “vessel density (CD31+ positive area)” value is on record as “increased vessel density”. Moreover, the “ROS formation (H2O2 measurement)” value in test [4] is “reduces ROS formation”. Moreover, the “wound closure (scratch wound assay)” value in test [5] was “accelerates wound closure”. The “wound closure after NRP-1 knock-down (Example 11)” value in test [5] (siRNA-NC/siNRP-1-transfected cells, printed as HUVECs, increasing concentration, 5 hours) is recorded as “positive effect on wound closure”.
In the case of AEIDSIELSYGIK [FOL56], the “expression of PECAM-1 (CD31)” value in test [1] (10 nM, 100 nM, 1000 nM tested) was “increased expression of PECAM-1”. Further, in test [2], the “sFasL-induced apoptosis (caspase 3 and 7)” value is recorded as “reduced sFasL-induced apoptosis; also recorded: capable of inhibiting, or trended towards inhibiting apoptosis”.
For the sequence VDTYDGDISVVYGLR [FOL-005], the “wound closure (scratch wound assay)” value in test [5] is “accelerate HCASMC wound closure”.
